Data taken from patent US20180057462A1, “Substituted 2-difluoromethyl-nicotin(thio)carboxanilide derivatives and their use as fungicides” (BAYER CROPSCIENCE AKTIENGESELLSCHAFT, priority 2015, published 2018).

test: LogP by HPLC on reversed phase columns (EEC directive 79/831 Annex V.A8), method [a]; format: physicochemical; conditions: LC-UV, acidic range, 0.1% formic acid in water and acetonitrile as eluent (linear gradient 10% to 95% acetonitrile)

Q: With `Cc1c(CCC2CC2(Cl)Cl)cccc1NC(=O)c1c(C(F)F)ccnc1C(F)F` (centres unmarked) [Example 1] as the compound, how does the “LogP[a]” value read?
A: 3.92

Q: For `O=C(Nc1cccc(-c2cc(F)ccc2F)c1Cl)c1cccnc1C(F)F` [Example 2], which “LogP[a]” value is on record?
A: 3.11

Q: Which “LogP[a]” value does the source give for `O=C(Nc1cccc(-c2ccccc2)c1Cl)c1cccnc1C(F)F` [Example 3] here?
A: 3.05

Q: Which “LogP[a]” value does the source give for `O=C(Nc1cccc(-c2ccccc2F)c1Cl)c1cccnc1C(F)F` [Example 4] here?
A: 2.99

Q: With `O=C(Nc1cccc(-c2cccc(F)c2)c1Cl)c1cccnc1C(F)F` [Example 5] as the compound, how does the “LogP[a]” value read?
A: 3.12

Q: Which “LogP[a]” value does the source give for `O=C(Nc1cccc(-c2ccc(F)cc2)c1Cl)c1cccnc1C(F)F` [Example 6] here?
A: 3.12

Q: With `O=C(Nc1cccc(-c2ccccc2Cl)c1Cl)c1cccnc1C(F)F` [Example 7] as the compound, how does the “LogP[a]” value read?
A: 3.22

Q: Which “LogP[a]” value does the source give for `O=C(Nc1cccc(-c2cccc(Cl)c2)c1Cl)c1cccnc1C(F)F` [Example 8] here?
A: 3.49

Q: For `O=C(Nc1cccc(-c2ccc(Cl)cc2)c1Cl)c1cccnc1C(F)F` [Example 9], which “LogP[a]” value is on record?
A: 3.54

Q: With `O=C(Nc1cccc(-c2ccc(F)cc2F)c1Cl)c1cccnc1C(F)F` [Example 10] as the compound, how does the “LogP[a]” value read?
A: 3.12

Q: Which “LogP[a]” value does the source give for `CCC(C)Oc1cccc(NC(=O)c2cccnc2C(F)F)c1C` (centres unmarked) [Example 11] here?
A: 3.02

Q: With `CCCC(CCC)Oc1cccc(NC(=O)c2cccnc2C(F)F)c1C` [Example 12] as the compound, how does the “LogP[a]” value read?
A: 4.26

Q: For `Cc1c(NC(=O)c2cccnc2C(F)F)cccc1OCC(C)C` [Example 13], which “LogP[a]” value is on record?
A: 3.17

Q: With `Cc1c(NC(=O)c2cccnc2C(F)F)cccc1OC(C)C(C)C` (centres unmarked) [Example 14] as the compound, how does the “LogP[a]” value read?
A: 3.41

Q: For `Cc1c(NC(=O)c2cccnc2C(F)F)cccc1OC(C)CC(C)C` (centres unmarked) [Example 15], which “LogP[a]” value is on record?
A: 3.79

Q: With `Cc1c(NC(=O)c2cccnc2C(F)F)cccc1OC1CCCCC1` [Example 16] as the compound, how does the “LogP[a]” value read?
A: 3.52

Q: For `Cc1c(NC(=O)c2cccnc2C(F)F)cccc1OCc1ncc(C(F)(F)F)cc1Cl` [Example 17], which “LogP[a]” value is on record?
A: 3.23

Q: For `Cc1c(NC(=O)c2cccnc2C(F)F)cccc1Oc1ncc(C(F)(F)F)cc1Cl` [Example 18], which “LogP[a]” value is on record?
A: 3.48

Q: Which “LogP[a]” value does the source give for `Cc1c(NC(=O)c2cccnc2C(F)F)cccc1OCc1ccc(Br)cc1` [Example 19] here?
A: 3.55

Q: Which “LogP[a]” value does the source give for `CCOCC(C)Oc1cccc(NC(=O)c2cccnc2C(F)F)c1C` (centres unmarked) [Example 20] here?
A: 2.57

Q: With `C#CCOCC(C)Oc1cccc(NC(=O)c2cccnc2C(F)F)c1C` (centres unmarked) [Example 21] as the compound, how does the “LogP[a]” value read?
A: 2.47

Q: With `CCCOCC(C)Oc1cccc(NC(=O)c2cccnc2C(F)F)c1C` (centres unmarked) [Example 22] as the compound, how does the “LogP[a]” value read?
A: 3.04

Q: For `Cc1c(NC(=O)c2cccnc2C(F)F)cccc1OC(C)COCC(C)C` (centres unmarked) [Example 23], which “LogP[a]” value is on record?
A: 3.55

Q: Which “LogP[a]” value does the source give for `Cc1c(NC(=O)c2cccnc2C(F)F)cccc1OC(C)COC(C)(C)C` (centres unmarked) [Example 24] here?
A: 3.31

Q: For `Cc1c(NC(=O)c2cccnc2C(F)F)cccc1OC(C)C1(Cl)CC1` (centres unmarked) [Example 25], which “LogP[a]” value is on record?
A: 3.06

Q: Which “LogP[a]” value does the source give for `Cc1c(NC(=O)c2cccnc2C(F)F)cccc1OCCC1CC1` [Example 26] here?
A: 3.17

Q: For `Cc1c(NC(=O)c2cccnc2C(F)F)cccc1OC(C)C1CCOC1` (centres unmarked) [Example 27], which “LogP[a]” value is on record?
A: 2.26

Q: With `CO/N=C\C(C)Oc1cccc(NC(=O)c2cccnc2C(F)F)c1C` (centres unmarked) [Example 28] as the compound, how does the “LogP[a]” value read?
A: 2.49

Q: Which “LogP[a]” value does the source give for `CCO/N=C\C(C)Oc1cccc(NC(=O)c2cccnc2C(F)F)c1C` (centres unmarked) [Example 29] here?
A: 2.82

Q: With `Cc1c(NC(=O)c2cccnc2C(F)F)cccc1OC(C)COc1ccccc1` (centres unmarked) [Example 30] as the compound, how does the “LogP[a]” value read?
A: 3.33

Q: Which “LogP[a]” value does the source give for `Cc1ccc(OCC(C)Oc2cccc(NC(=O)c3cccnc3C(F)F)c2C)cc1` (centres unmarked) [Example 31] here?
A: 3.68

Q: For `Cc1ccccc1OCC(C)Oc1cccc(NC(=O)c2cccnc2C(F)F)c1C` (centres unmarked) [Example 32], which “LogP[a]” value is on record?
A: 3.74
